Laboratory results: ChEMBL document CHEMBL1201862, “PubChem BioAssay data set” (2004)
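Values below derive from 48-hour exposures of cells grown in 96-well plates, with endpoints linearly interpolated between the two concentrations bracketing the appropriate inhibition level. The concentration for 50% growth inhibition is given as GI50.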 Activity calls are given as the source filed them. No stated cut-off is given here; in the data, active = GI50 up to about 1.1 µM and inactive = higher.

What was measured:
Test in all cases: growth of human tumour cells (NCI), 48 h
[1] = tested on: MDA-MB-435
[2] = tested on: SR
[3] = tested on: HT-29
[4] = tested on: DU-145
[5] = tested on: SK-OV-3
[6] = tested on: MDA-MB-231
[7] = tested on: OVCAR-4
[8] = tested on: BT-549
[9] = tested on: OVCAR-5
[10] = tested on: HOP-92
[11] = tested on: EKVX
[12] = tested on: RXF 393
[13] = tested on: SNB-75
[14] = tested on: IGROV-1
[15] = tested on: M14
[16] = tested on: Malme-3M
[17] = tested on: HL-60
[18] = tested on: ACHN
[19] = tested on: A549

Structure (SMILES) | GI50 [1] | GI50 [2] | GI50 [3] | GI50 [4] | GI50 [5] | GI50 [6] | GI50 [7] | GI50 [8] | GI50 [9] | GI50 [10] | GI50 [11] | GI50 [12] | GI50 [13] | GI50 [14] | GI50 [15] | GI50 [16] | GI50 [17] | GI50 [18] | GI50 [19]
O=C(Nc1ccc([As](=O)(O)O)cc1)Nc1cccc(Cl)c1Cl | > 100 µM (inactive) | 17 µM (inactive) | > 100 µM (inactive) | > 100 µM (inactive) | > 100 µM (inactive) | 23.3 µM (inactive) | 18.7 µM (inactive) | > 100 µM (inactive) | > 100 µM (inactive) | 77.8 µM (inactive) | 79.8 µM (inactive) | 22.2 µM (inactive) | 21.7 µM (inactive) | > 100 µM (inactive) | > 100 µM (inactive) | > 100 µM (inactive) | > 100 µM (inactive) | > 100 µM (inactive) | > 100 µM (inactive)
Cc1nc2c(ccc3[nH]c4ccccc4c32)s1 | 26.4 µM (inactive) | 13.8 µM (inactive) | 16.9 µM (inactive) | 33.8 µM (inactive) | 22.3 µM (inactive) | 14.5 µM (inactive) | 25.5 µM (inactive) | 19.1 µM (inactive) | 19.3 µM (inactive) | 16.3 µM (inactive) | 21.2 µM (inactive) | 29.8 µM (inactive) | 32.9 µM (inactive) | 21.9 µM (inactive) | 18.9 µM (inactive) | 31.4 µM (inactive) | 0.111 µM (active) | 35.1 µM (inactive) | 28.4 µM (inactive)
Cc1cc(NS(=O)(=O)c2ccc(NC(=O)c3ccc4nc5ccccc5c(Nc5ccc(S(N)(=O)=O)cc5)c4c3)cc2)no1 | 21.4 µM (inactive) | 25.1 µM (inactive) | 28.6 µM (inactive) | 48.3 µM (inactive) | > 100 µM (inactive) | 24 µM (inactive) | 27.4 µM (inactive) | 28 µM (inactive) | 27 µM (inactive) | 24.6 µM (inactive) | 24.7 µM (inactive) | 23.4 µM (inactive) | 38.2 µM (inactive) | 33.4 µM (inactive) | 30 µM (inactive) | 21.5 µM (inactive) | 22.7 µM (inactive) | 21.3 µM (inactive) | 24.6 µM (inactive)
NS(=O)(=O)c1nnc(NS(=O)(=O)c2ccccc2[N+](=O)[O-])s1 | > 100 µM (inactive) | > 100 µM (inactive) | > 100 µM (inactive) | > 100 µM (inactive) | > 100 µM (inactive) | > 100 µM (inactive) | > 100 µM (inactive) | > 100 µM (inactive) | > 100 µM (inactive) | > 100 µM (inactive) | > 100 µM (inactive) | > 100 µM (inactive) | > 100 µM (inactive) | > 100 µM (inactive) | > 100 µM (inactive) | > 100 µM (inactive) | > 100 µM (inactive) | > 100 µM (inactive) | > 100 µM (inactive)
CO[P@@]1(=O)O[C@@H](c2ccccc2)[C@H](O)[C@@]1(O)c1ccccc1 | > 100 µM (inactive) | 10.2 µM (inactive) | 45.6 µM (inactive) | > 100 µM (inactive) | > 100 µM (inactive) | > 100 µM (inactive) | > 100 µM (inactive) | > 100 µM (inactive) | > 100 µM (inactive) | > 100 µM (inactive) | > 100 µM (inactive) | > 100 µM (inactive) | > 100 µM (inactive) | > 100 µM (inactive) | > 100 µM (inactive) | > 100 µM (inactive) | > 100 µM (inactive) | > 100 µM (inactive) | > 100 µM (inactive)
CC(C)(C)C1CCC2c3c([nH]c4ccccc34)C3C(=O)N(c4cccc(Cl)c4)C(=O)C3C2C1 (stereo not given) | 10.5 µM (inactive) | 4.36 µM (inactive) | 6.38 µM (inactive) | 11.7 µM (inactive) | 24.1 µM (inactive) | 14.2 µM (inactive) | 14.6 µM (inactive) | 21.1 µM (inactive) | 13.5 µM (inactive) | 5.05 µM (inactive) | 11.5 µM (inactive) | 8.36 µM (inactive) | 14.1 µM (inactive) | 13.8 µM (inactive) | 9.98 µM (inactive) | 16.6 µM (inactive) | 3.01 µM (inactive) | 9.33 µM (inactive) | 14.2 µM (inactive)
O=C(CCCC1Cc2ccccc2C1=O)c1ccccc1 (stereo not given) | 56.1 µM (inactive) | 41.2 µM (inactive) | 42.2 µM (inactive) | > 100 µM (inactive) | > 100 µM (inactive) | > 100 µM (inactive) | 59.3 µM (inactive) | 38.6 µM (inactive) | > 100 µM (inactive) | 62.8 µM (inactive) | 65.2 µM (inactive) | 52.5 µM (inactive) | 70.5 µM (inactive) | > 100 µM (inactive) | 99.8 µM (inactive) | 44.2 µM (inactive) | 32.4 µM (inactive) | 98.4 µM (inactive) | 50 µM (inactive)
S=c1ssc2c3ssc(=S)c3n(Cc3ccccc3)c12 | > 100 µM (inactive) | 0.67 µM (active) | > 100 µM (inactive) | 54 µM (inactive) | > 100 µM (inactive) | > 100 µM (inactive) | > 100 µM (inactive) | > 100 µM (inactive) | > 100 µM (inactive) | > 100 µM (inactive) | 69.7 µM (inactive) | 0.494 µM (active) | 98.4 µM (inactive) | > 100 µM (inactive) | > 100 µM (inactive) | > 100 µM (inactive) | > 100 µM (inactive) | > 100 µM (inactive) | > 100 µM (inactive)
COC(=O)C1(C)CCCC2(C)C3CCC4CC3(C=C4CO)CCC12 (stereo not given) | 83.2 µM (inactive) | 27.6 µM (inactive) | 16.2 µM (inactive) | > 100 µM (inactive) | > 100 µM (inactive) | 73.5 µM (inactive) | 68.2 µM (inactive) | 49.3 µM (inactive) | > 100 µM (inactive) | 55.1 µM (inactive) | 41.2 µM (inactive) | 56.4 µM (inactive) | 37.2 µM (inactive) | > 100 µM (inactive) | 93.8 µM (inactive) | 27 µM (inactive) | 20.6 µM (inactive) | 41 µM (inactive) | > 100 µM (inactive)
CNC(=O)N(C1=NCC(C)S1)c1ccc(C)c(C)c1 (stereo not given) | 0.706 µM (active) | 3.67 µM (inactive) | 2.52 µM (inactive) | 7.5 µM (inactive) | 4.28 µM (inactive) | 12.1 µM (inactive) | 13.6 µM (inactive) | 27.3 µM (inactive) | 15.6 µM (inactive) | 5.78 µM (inactive) | 6.55 µM (inactive) | 2.46 µM (inactive) | 1.31 µM (inactive) | 8.89 µM (inactive) | 1.13 µM (inactive) | 4.15 µM (inactive) | 1.17 µM (inactive) | 12 µM (inactive) | 6.52 µM (inactive)
O=C1C2CC[C@@H]3C(=O)C(Cl)(Cl)[C@@H]3CCC2C1(Cl)Cl (stereo not given in full) | > 100 µM (inactive) | 26.9 µM (inactive) | > 100 µM (inactive) | > 100 µM (inactive) | > 100 µM (inactive) | > 100 µM (inactive) | > 100 µM (inactive) | > 100 µM (inactive) | > 100 µM (inactive) | > 100 µM (inactive) | > 100 µM (inactive) | > 87.7 µM (inactive) | > 100 µM (inactive) | > 100 µM (inactive) | > 100 µM (inactive) | > 100 µM (inactive) | 6.17 µM (inactive) | > 100 µM (inactive) | > 100 µM (inactive)
O=[N+]([O-])C(/C(Cl)=C(\Cl)Br)=C(/Cl)SCc1ccccc1 | 1.87 µM (inactive) | 1.44 µM (inactive) | 2.12 µM (inactive) | 13 µM (inactive) | 19.6 µM (inactive) | 2.94 µM (inactive) | 3.87 µM (inactive) | 2.56 µM (inactive) | 12.5 µM (inactive) | 2.31 µM (inactive) | 6.67 µM (inactive) | 2.35 µM (inactive) | 3.26 µM (inactive) | 5.9 µM (inactive) | 2.77 µM (inactive) | 6.31 µM (inactive) | 0.336 µM (active) | 2.97 µM (inactive) | 16.3 µM (inactive)
Nc1nn2c(C(Br)Br)cc(C(Br)Br)nc2c1[N+](=O)[O-] | 0.587 µM (active) | 0.283 µM (active) | 0.766 µM (active) | 1.68 µM (inactive) | 3.43 µM (inactive) | 1.6 µM (inactive) | 1.45 µM (inactive) | 0.766 µM (active) | 1.72 µM (inactive) | 1.17 µM (inactive) | 2.37 µM (inactive) | 1.37 µM (inactive) | 1.08 µM (active) | 1.21 µM (inactive) | 0.627 µM (active) | 0.738 µM (active) | 0.178 µM (active) | 0.861 µM (active) | 2.43 µM (inactive)
CC1=CC(=O)/C(=C/NC(=S)NCc2ccccc2)C(=O)O1 | > 100 µM (inactive) | > 100 µM (inactive) | > 100 µM (inactive) | > 100 µM (inactive) | > 100 µM (inactive) | > 100 µM (inactive) | > 100 µM (inactive) | > 100 µM (inactive) | > 100 µM (inactive) | > 100 µM (inactive) | > 100 µM (inactive) | > 100 µM (inactive) | 80 µM (inactive) | > 100 µM (inactive) | > 100 µM (inactive) | > 100 µM (inactive) | 75.3 µM (inactive) | > 100 µM (inactive) | > 100 µM (inactive)
CN(C)c1ccc2cc3ccc(N(C)C)cc3nc2c1 [ACRIDINE ORANGE] | 1.79 µM (inactive) | 0.0849 µM (active) | 0.403 µM (active) | 1.32 µM (inactive) | 5.85 µM (inactive) | 1.19 µM (inactive) | 0.853 µM (active) | 6.78 µM (inactive) | 2.75 µM (inactive) | 4.32 µM (inactive) | 1.87 µM (inactive) | 3.74 µM (inactive) | 2.1 µM (inactive) | 2.2 µM (inactive) | 3.05 µM (inactive) | 3.86 µM (inactive) | 0.331 µM (active) | 0.611 µM (active) | 0.927 µM (active)
